Source: US20160257651A1, “NOVEL COMPOUND WITH ANTIBACTERIAL ACTIVITY” (priority 2013, published 2016)
In brackets after ≈: the same amount, converted by molar mass. Like-named read-outs stand apart in the source and are kept apart here.

Legend:
E. faecium RPR2 = assay: MIC against Enterococcus bacteria; assay type: cell-based, Enterococcus faecium; settings: Enterococcus faecium, RPR2
Protocol: (§1) Antibacterial activities of the compound J-131CP against Enterococcus bacteria (Enterococcus faecium and Enterococcus faecalis) were examined by the following methods.
(§2) The compound J-131CP and quinolones were prepared in the same manner as that of Test Example 1-1.
(§3) Cell suspensions were prepared in the same manner as that of Test Example 1-1 described in the section of measurement of MIC in Test Example 1-1, except that the Enterococcus bacterium strains mentioned in Table 8 were used instead of Staphylococcus aureus, and MICs of the compound J-131CP and quinolones as control were determined for the strains in the same manner as that of Test Example 1-1 described in the section of measurement of MIC in Test Example 1-1. In Table 8, the amino acid substitution mutations in QRDR of the strains are underlined.

E. faecium NCTC12202 = assay: MIC against Enterococcus bacteria; assay type: cell-based, Enterococcus faecium; settings: Enterococcus faecium, NCTC 12202 / VRE; E. faecium NCTC12202, VRE, quinolone-susceptible; read-out: MIC
Protocol: as §1, §2, §3

[1] = system: Staphylococcus aureus MI (VISA); assay: MIC, S. aureus categories (Test Example 3); assay type: cell-based
Protocol: (§4) The antibacterial activities of the compound J-131CP against Staphylococcus aureus strains belonging to the five categories of Staphylococcus aureus, i.e., MSSA, MRSA, community-acquired-infection type MRSA (CA-MRSA), VISA, and VRSA, were investigated.
as §2
(§5) Cell suspensions were prepared in the same manner as that of Test Example 1-1 described in the section of measurement of MIC in Test Example 1-1, except that the strains mentioned in Table 6 were used as Staphylococcus aureus, and MICs of the compound J-131CP and quinolones as the control were determined for the strains in the same manner as that of Test Example 1-1. In Table 6, the amino acid substitution mutations in QRDR of the strains are underlined.

[2] = system: Staphylococcus aureus BR2 (VISA); assay: MIC, S. aureus categories (Test Example 3); assay type: cell-based
Protocol: as §4, §2, §5

[3] = system: Staphylococcus aureus VRS3a (VRSA); assay: MIC, S. aureus categories (Test Example 3); assay type: cell-based
Protocol: as §4, §2, §5

[4] = system: Staphylococcus aureus USA300FPR (CA-MRSA); assay: MIC, S. aureus categories (Test Example 3); assay type: cell-based
Protocol: as §4, §2, §5

[5] = system: Staphylococcus aureus VRS1 (VRSA); assay: MIC, S. aureus categories (Test Example 3); assay type: cell-based
Protocol: as §4, §2, §5

[6] = system: Staphylococcus aureus KSA36 (MRSA); assay: MIC, S. aureus categories (Test Example 3); assay type: cell-based
Protocol: as §4, §2, §5

[7] = system: Staphylococcus aureus VRS5 (VRSA); assay: MIC, S. aureus categories (Test Example 3); assay type: cell-based
Protocol: as §4, §2, §5

[8] = system: Staphylococcus aureus NCTC8325 (MSSA); assay: MIC, S. aureus categories (Test Example 3); assay type: cell-based; settings: Staphylococcus aureus, strain NCTC8325, MSSA
Protocol: as §4, §2, §5

[9] = system: Staphylococcus aureus MW2 (CA-MRSA); assay: MIC, S. aureus categories (Test Example 3); assay type: cell-based; settings: Staphylococcus aureus; strain MW2, CA-MRSA; read-out: MIC
Protocol: as §4, §2, §5

[10] = system: Staphylococcus aureus ATCC29213 (MSSA); assay: MIC, S. aureus categories (Test Example 3); assay type: cell-based; settings: strain ATCC29213, MSSA, read-out: MIC
Protocol: as §4, §2, §5

S. aureus Mu50 NR1-1 = assay: microbe, parasite or virus in culture; assay type: cell-based; settings: Staphylococcus aureus, MU50NR11
Protocol: (§6) Then, the cell suspension was diluted 500 times with CAMHB mentioned above.

E. faecalis 36-15722 = assay: MIC against Enterococcus bacteria; assay type: cell-based, Enterococcus faecalis; settings: Enterococcus faecalis, 3615722
Protocol: as §1, §2, §3

[11] = system: S. aureus FDA209P (ATCC 6538P); assay: microbe, parasite or virus in culture; assay type: cell-based, Staphylococcus aureus; settings: Staphylococcus aureus, ATCC 6538P / FDA209P / MSSA, quinolone-susceptible MSSA, ParC 80S, GyrA 84S, read-out: MIC
Protocol: as §6

S. pneumoniae BCLSP37 = assay: MIC against pneumococcus, CAMHB with 5 mass % LHB; assay type: cell-based, Streptococcus pneumoniae; settings: Streptococcus pneumoniae, BCLSP37, S. pneumoniae BCLSP37, PSSP, quinolone-resistant; ParC 79Phe, GyrA 85Lys; read-out: MIC
Protocol: (§7) The S. pneumoniae strains used for this test belong to any one of the categories of penicillin-susceptible pneumococcus (penicillin-susceptible Streptococcus pneumoniae, PSSP), penicillin-intermediate pneumococcus (penicillin-intermediate Streptococcus pneumoniae, PISP), and penicillin-resistant pneumococcus (penicillin-resistant Streptococcus pneumoniae, PRSP).
(§8) The lysed horse blood was prepared by adding sterilized water to horse sterile defibered blood (produced by Nippon Bio-Supp. Center) at a ratio of 1:1, subjecting the mixture to freezing and thawing 5 times, then centrifuging the mixture twice at 10,000 rpm for 20 minutes, and filtering the supernatant through a filter.
(§9) The S. pneumoniae strains mentioned in Table 11 were each cultured overnight at 37° C. on a blood agar medium as stationary culture. The blood agar medium was prepared by adding 5 mass % ovine sterile defibered blood (produced by Nippon Bio-Supp. Center) to a heart infusion agar medium (produced by EIKEN CHEMICAL). Each S. pneumoniae strain cultured overnight at 37° C. as stationary culture was further subcultured overnight at 37° C. on fresh blood agar medium as stationary culture. After completion of the culture, cells of each pneumococcus strain were collected with a swab, and suspended in physiological saline, and the suspension was adjusted with physiological saline to show absorbance of 0.08 to 0.13 at 625 nm as measured with an absorbance meter (produced by Amersham), and further diluted 200 times with CAMHB containing 5 mass % LHB.
(§10) In Table 11, the amino acid substitution mutations in QRDR of the strains are underlined.

S. pneumoniae KBSP11 = assay: MIC against pneumococcus, CAMHB with 5 mass % LHB; assay type: cell-based, Streptococcus pneumoniae; settings: Streptococcus pneumoniae; S. pneumoniae KBSP11, PRSP, quinolone-susceptible; read-out: MIC
Protocol: as §7, §8, §9, §10

[12] = E. faecalis 36-15722, quinolone-resistant, ParC 80Ile, GyrA 84Ile, read-out: MIC

SMILES	MIC (E. faecium RPR2)	MIC (E. faecium NCTC12202)	MIC [1]	MIC [2]	MIC [3]	MIC [4]	MIC [5]	MIC [6]	MIC [7]	MIC [8]	MIC [9]	MIC [10]	MIC (S. aureus Mu50 NR1-1)	MIC (E. faecalis 36-15722; [12])	MIC [11]	MIC (S. pneumoniae BCLSP37)	MIC (S. pneumoniae KBSP11)	MIC ([8]; read-out: MIC)	MIC (E. faecalis 36-15722)
C[C@@H]1CN(c2c(F)c(N)c3c(=O)c(C(=O)O)cn(C4CC4)c3c2F)C[C@H](C)N1 [SPX, sparfloxacin]	> 128 µg/mL	0.25 µg/mL (≈ 0.637 µM)	32 µg/mL (≈ 81.5 µM)	32 µg/mL (≈ 81.5 µM)	16 µg/mL (≈ 40.8 µM)	8 µg/mL (≈ 20.4 µM)	8 µg/mL (≈ 20.4 µM)	128 µg/mL (≈ 326 µM)	128 µg/mL (≈ 326 µM)	0.125 µg/mL (≈ 0.319 µM)	≤ 0.06 µg/mL	≤ 0.06 µg/mL	0.25 µg/mL (≈ 0.637 µM)	64 µg/mL (≈ 163 µM)	≤ 0.06 µg/mL	> 32 µg/mL	0.25 µg/mL (≈ 0.637 µM)	–	–
CCn1cc(C(=O)O)c(=O)c2cc(F)c(N3CCNCC3)cc21 [NOR, norfloxacin]	> 128 µg/mL	2 µg/mL (≈ 6.26 µM)	128 µg/mL (≈ 401 µM)	64 µg/mL (≈ 200 µM)	128 µg/mL (≈ 401 µM)	32 µg/mL (≈ 100 µM)	> 128 µg/mL	> 128 µg/mL	> 128 µg/mL	–	0.5 µg/mL (≈ 1.57 µM)	1 µg/mL (≈ 3.13 µM)	16 µg/mL (≈ 50.1 µM)	128 µg/mL (≈ 401 µM)	0.25 µg/mL (≈ 0.783 µM)	64 µg/mL (≈ 200 µM)	4 µg/mL (≈ 12.5 µM)	1 µg/mL (≈ 3.13 µM)	–
O=C(O)c1cn(C2CC2)c2cc(N3CCNCC3)c(F)cc2c1=O [CIP, ciprofloxacin]	> 128 µg/mL	0.5 µg/mL (≈ 1.51 µM)	16 µg/mL (≈ 48.3 µM)	4 µg/mL (≈ 12.1 µM)	64 µg/mL (≈ 193 µM)	16 µg/mL (≈ 48.3 µM)	128 µg/mL (≈ 386 µM)	128 µg/mL (≈ 386 µM)	> 128 µg/mL	–	0.25 µg/mL (≈ 0.754 µM)	0.25 µg/mL (≈ 0.754 µM)	–	–	–	> 32 µg/mL	0.5 µg/mL (≈ 1.51 µM)	0.25 µg/mL (≈ 0.754 µM)	64 µg/mL (≈ 193 µM)
